{
  "source": "patent US11033509B2",
  "about": "(BIOGEN MA INC., priority 2016, dated 2021)",
  "origin": "cited, not measured here",
  "details": "DMF absorbed in vivo and converted to MMF",
  "note": "Where a name gives a salt, the structure may show the parent alone.",
  "data": [
    {"smiles": "COC(=O)/C=C/C(=O)O", "note": "[MMF, monomethyl fumarate]", "values": [
      {"measurement": "half-life of MMF", "result": "approximately 1 hour"}
    ]}
  ]
}
